From paper PMC10544195, “Identification of novel SCD1 inhibitor alleviates nonalcoholic fatty liver disease: critical role of liver-adipose axis” (Cell Communication and Signaling : CCS, 2023)

Tested on: T1, SCD1
T1 construct: IC50 assay and protein source not described; activity elsewhere measured in mouse OP9 and AML12 cells (native enzyme)
Experiment: SCD1 inhibition, assay not described
Format: cell-based
Conditions: assay system not stated

IC50 [µM] | SMILES
0.98 | c1cc(-c2nc3ccc(OCCCN4CCCC4)cc3o2)ccc1OCCCN1CCCC1 [E6446]
2.8 | CNC(=O)c1cccc(NC(=O)N2CCC(Oc3ccccc3Cl)CC2)c1 [A939572]
